US20030171307A1, “Azalide antibiotic compositions” (Pfizer Inc., priority 2001, published 2003)

Experiment: Equilibration of azalide isomers I and II in heated aqueous acid, HPLC (Table 1)
Type: physicochemical
Details: isomer I prior to equilibration, for comparison

% Equilibrium mixture of isomers: 98.39%
% Impurities: 1.61%
SMILES: CCCNC[C@]1(O)[C@H](C)O[C@@H](O[C@H]2[C@H](C)[C@@H](OC3O[C@H](C)C[C@H](N(C)C)[C@H]3O)C(C)(O)C[C@@H](C)CN[C@H](C)[C@@H](O)[C@](C)(O)[C@@H](CC)OC(=O)[C@@H]2C)C[C@@]1(C)OC (single isomer, unassigned) [isomer I]
